Key:
Details in all cases: 20 DAT
SSYOF = assay: Greenhouse preemergence herbicidal activity; format: in vivo, Sisymbrium officinale
Description: (§1) The test plants have been seeded, separately for each species, in plastic containers in sandy loamy soil containing 5% of organic matter.
(§2) The containers were irrigated gently to promote germination and growth and subsequently covered with transparent plastic hoods until the plants had rooted.
(§3) The plants have been cultivated due to their individual requirements at 10-25° C. and 20-35° C.
(§4) The plants were irrigated due to their necessity.
(§5) The racemic mixture (±)-2-exo-(2-Methylbenzyloxy)-1-methyl-4-isopropyl-7-oxabicyclo[2.2.1]heptane was used as herbicide A and formulated as emulsifiable concentrates with an active ingredient concentration of 50 g/l, 100 g/l or 750 g/l respectively.
(§6) Dimethenamid-P was used as emulsifiable concentrate (EC) formulation having an active ingredient concentration of 720 g/l.
(§7) In the following experiments, the herbicidal activity for the individual herbicidal compositions (solo and mixture applications) was assessed 20 days after treatment (DAT).
(§8) The evaluation for the damage on undesired weeds caused by the chemical compositions was carried out using a scale from 0 to 100%, compared to the untreated control plants. Here, 0 means no damage and 100 means complete destruction of the plants.
(§9) E=X+Y−(X·Y/100) where X=effect in percent using herbicide A at an application rate a; • Y=effect in percent using herbicide B at application rate b; • E=expected effect (in %) of herbicide A+herbicide B at application rates a+b.
(§10) The value E corresponds to the effect (plant damage or injury) which is to be expected if the activity of the individual compounds is additive. If the observed effect is higher than the value E calculated according to the Colby equation, a synergistic effect is present.

POLCO = assay: Greenhouse preemergence herbicidal activity; format: in vivo, Polygonum convolvulus
Description: as §1, §2, §3, §4, §5, §6, §7, §8, §9, §10

HELAN = assay: Greenhouse preemergence herbicidal activity; format: in vivo, Helianthus annuus
Description: as §1, §2, §3, §4, §5, §6
(§11) In the following experiments, the herbicidal activity for the individual herbicidal compositions (solo and mixture applications) was assessed 20 days after treatment (DAT). […]
as §10

ABUTH = assay: Greenhouse preemergence herbicidal activity; format: in vivo, Abutilon theophrasti
Description: as §1, §2, §3, §4, §5, §6, §7, §8, §9, §10

ALOMY = assay: Greenhouse preemergence herbicidal activity; format: in vivo, Alopecurus myosuroides
Description: as §1, §2, §3, §4, §5, §6, §11, §10

SORHA = assay: Greenhouse preemergence herbicidal activity; format: in vivo, Sorghum halepense
Description: as §1, §2, §3, §4, §5, §6, §7, §8, §9, §10

BRSNW = assay: Greenhouse postemergence herbicidal activity; format: in vivo, Brassica napus
Description: as §1
(§12) For the post emergence treatment, the plants were first grown to the 2 leaf station (GS 12). Here, the herbicidal compositions were suspended or emulsified in water as distribution medium and sprayed using finely distributing nozzles.
as §3, §4, §5, §6, §11, §10

AMBEL = assay: Greenhouse preemergence herbicidal activity; format: in vivo, Ambrosia elatior
Description: as §1, §2, §3, §4, §5, §6, §11, §10

GALAP = assay: Greenhouse preemergence herbicidal activity; format: in vivo, Galium aparine
Description: as §1, §2, §3, §4, §5, §6, §7, §8, §9, §10

AVEFA = assay: Greenhouse preemergence herbicidal activity; format: in vivo, Avena fatua
Description: as §1, §2, §3, §4, §5, §6, §7, §8, §9, §10

ANTAR [1] = assay: Greenhouse preemergence herbicidal activity; format: in vivo, Anthemis arvensis
Description: as §1, §2, §3, §4, §5, §6, §7, §8, §9, §10

THLAR = assay: Greenhouse preemergence herbicidal activity; format: in vivo, Thlaspi arvense
Description: as §1, §2, §3, §4, §5, §6, §7, §8, §9, §10

ANTAR [2] = assay: Greenhouse postemergence herbicidal activity; format: in vivo, Anthemis arvensis
Description: as §1, §12, §3, §4, §5, §6, §7, §8, §9, §10

[3] = solo Dimethenamid-P 62.5 g ai/ha
[4] = solo Dimethenamid-P 125 g ai/ha
[5] = solo Dimethenamid-P 250 g ai/ha
[6] = solo Dimethenamid-P 37.5 g ai/ha
[7] = solo Dimethenamid-P 500 g ai/ha
[8] = solo Dimethenamid-P 150 g ai/ha
[9] = solo Dimethenamid-P 300 g ai/ha

COC[C@H](C)N(C(=O)CCl)c1c(C)csc1C [Dimethenamid-P, (S)-2-chloro-N-(2,4-dimethyl-3-thienyl)-N-(2-methoxy-1-methylethyl)acetamide]
herbicidal activity (SSYOF; [3]): 0%
herbicidal activity (SSYOF; [4]): 70%
herbicidal activity (SSYOF; [5]): 98%
herbicidal activity (POLCO; [6]): 0%
herbicidal activity (POLCO; [3]): 0%
herbicidal activity (POLCO; solo Dimethenamid-P 75 g ai/ha): 0%
herbicidal activity (POLCO; [4]): 0%
herbicidal activity (POLCO; [5]): 30%
herbicidal activity (POLCO; [7]): 60%
herbicidal activity (HELAN; [7]): 30%
herbicidal activity (ABUTH; [4]): 10%
herbicidal activity (ABUTH; [5]): 25%
herbicidal activity (ALOMY; [3]): 25%
herbicidal activity (SORHA; [6]): 30%
herbicidal activity (SORHA; solo Dimethenamid-P 75 g ai/ha): 70%
herbicidal activity (BRSNW; solo Dimethenamid-P 75 g ai/ha): 20%
herbicidal activity (AMBEL; [4]): 35%
herbicidal activity (GALAP; [3]): 20%
herbicidal activity (GALAP; [8]): 70%
herbicidal activity (GALAP; [5]): 75%
herbicidal activity (GALAP; [9]): 75%
herbicidal activity (GALAP; [7]): 80%
herbicidal activity (AVEFA; [6]): 0%
herbicidal activity (AVEFA; [3]): 0%
herbicidal activity (AVEFA; solo Dimethenamid-P 75 g ai/ha): 0%
herbicidal activity (AVEFA; [4]): 25%
herbicidal activity (ANTAR [1]; [6]): 20%
herbicidal activity (ANTAR [1]; [3]): 75%
herbicidal activity (ANTAR [1]; solo Dimethenamid-P 75 g ai/ha): 50%
herbicidal activity (ANTAR [1]; [4]): 95%
herbicidal activity (ANTAR [1]; [8]): 85%
herbicidal activity (ANTAR [1]; [5]): 98%
herbicidal activity (ANTAR [1]; [9]): 90%
herbicidal activity (THLAR; [4]): 40%
herbicidal activity (THLAR; [5]): 70%
herbicidal activity (THLAR; [7]): 90%
herbicidal activity (ANTAR [2]; [6]): 0%
herbicidal activity (ANTAR [2]; solo Dimethenamid-P 75 g ai/ha): 0%
herbicidal activity (ANTAR [2]; [8]): 35%
herbicidal activity (ANTAR [2]; [9]): 45%

(±)-2-exo-(2-Methylbenzyloxy)-1-methyl-4-isopropyl-7-oxabicyclo[2.2.1]heptane [herbicide A]
herbicidal activity (SSYOF; solo herbicide A 31.25 g ai/ha): 0%
herbicidal activity (SSYOF; solo herbicide A 62.5 g ai/ha): 0%
herbicidal activity (SSYOF; solo herbicide A 125 g ai/ha): 50%
herbicidal activity (POLCO; solo herbicide A 31.25 g ai/ha): 0%
herbicidal activity (POLCO; solo herbicide A 62.5 g ai/ha): 0%
herbicidal activity (POLCO; solo herbicide A 125 g ai/ha): 0%
herbicidal activity (POLCO; solo herbicide A 250 g ai/ha): 0%
herbicidal activity (HELAN; solo herbicide A 125 g ai/ha): 0%
herbicidal activity (ABUTH; solo herbicide A 62.5 g ai/ha): 55%
herbicidal activity (ABUTH; solo herbicide A 125 g ai/ha): 65%
herbicidal activity (ALOMY; solo herbicide A 31.25 g ai/ha): 85%
herbicidal activity (SORHA; solo herbicide A 62.5 g ai/ha): 80%
herbicidal activity (SORHA; solo herbicide A 125 g ai/ha): 90%
herbicidal activity (BRSNW; solo herbicide A 125 g ai/ha): 0%
herbicidal activity (AMBEL; solo herbicide A 62.5 g ai/ha): 0%
herbicidal activity (GALAP; solo herbicide A 31.25 g ai/ha): 0%
herbicidal activity (GALAP; solo herbicide A 125 g ai/ha): 20%
herbicidal activity (GALAP; solo herbicide A 250 g ai/ha): 65%
herbicidal activity (GALAP; solo herbicide A 500 g ai/ha): 80%
herbicidal activity (AVEFA; solo herbicide A 31.25 g ai/ha): 0%
herbicidal activity (AVEFA; solo herbicide A 125 g ai/ha): 50%
herbicidal activity (ANTAR [1]; solo herbicide A 31.25 g ai/ha): 0%
herbicidal activity (ANTAR [1]; solo herbicide A 250 g ai/ha): 40%
herbicidal activity (ANTAR [1]; solo herbicide A 500 g ai/ha): 65%
herbicidal activity (THLAR; solo herbicide A 62.5 g ai/ha): 65%
herbicidal activity (THLAR; solo herbicide A 125 g ai/ha): 75%
herbicidal activity (THLAR; solo herbicide A 500 g ai/ha): 90%
herbicidal activity (ANTAR [2]; solo herbicide A 62.5 g ai/ha): 0%
herbicidal activity (ANTAR [2]; solo herbicide A 125 g ai/ha): 0%
herbicidal activity (ANTAR [2]; solo herbicide A 250 g ai/ha): 40%
herbicidal activity (ANTAR [2]; solo herbicide A 500 g ai/ha): 65%
